Values after ≈ are worked out from the molar mass of the structure shown.
Legend:
Test in all cases: ≥ marks a high value that may be exact or a test limit, other limits are often not marked, values filed in µg/mL are converted to µM
[1] = tested on: Klebsiella pneumoniae XJ75297
[2] = tested on: Escherichia coli
[3] = tested on: Salmonella typhimurium SL1344
[4] = tested on: Escherichia coli ATCC 25922
[5] = tested on: Pseudomonas aeruginosa XJ75315
[6] = tested on: Pseudomonas aeruginosa ATCC 27853
[7] = tested on: Staphylococcus aureus ATCC 29213
[8] = tested on: Escherichia coli ATCC 35218
[9] = tested on: Shigella flexneri ATCC 12022
[10] = tested on: Staphylococcus epidermidis
[11] = tested on: Pectobacterium carotovorum
[12] = tested on: Bacillus subtilis C626
[13] = tested on: Escherichia coli O157:H7
[14] = tested on: Acinetobacter baumannii ATCC 17978
[15] = tested on: Staphylococcus aureus C622
[16] = tested on: Staphylococcus aureus 209P
[17] = tested on: Escherichia coli NIHJ
[18] = tested on: Pseudomonas aeruginosa PAO1
[19] = tested on: Micrococcus luteus ATCC 9341
[20] = tested on: Streptococcus pyogenes COOK
[21] = tested on: Bacillus subtilis ATCC 6633
[22] = tested on: Staphylococcus aureus CCT 2580
[23] = tested on: Pseudomonas aeruginosa ATCC 15422
[24] = tested on: Escherichia coli CCT 1457
[25] = tested on: Bacillus cereus ATCC 11778

Compound `CC[C@H](C)[C@H](NC(=O)[C@@H](NC(=O)[C@@H]1CCCN1C(=O)[C@@H](NC(=O)[C@@H]1CCCN1C(=O)[C@H](CCCCN)NC(=O)[C@H](CCCCN)NC(=O)[C@H](CO)NC(=O)CN)C(C)C)[C@@H](C)CC)C(=O)N[C@@H](Cc1ccc(O)cc1)C(=O)N[C@@H](CS)C(=O)N[C@@H](CC(N)=O)C(=O)N[C@@H](CCCN=C(N)N)C(=O)N[C@@H](CCCN=C(N)N)C(=O)N[C@H](C(=O)NCC(=O)N[C@@H](CCCCN)C(=O)N[C@@H](CS)C(=O)N[C@@H](CCC(N)=O)C(=O)N[C@@H](CCCN=C(N)N)C(=O)N[C@@H](CCSC)C(=O)O)[C@@H](C)O` [GSKKPVPIIYCNRRTGKCQRM] has an MIC [1] of 0.41 µM (≈ 1 µg/mL), an MIC [2] of 0.41 µM (≈ 1 µg/mL) and an MIC [3] of 0.41 µM (≈ 1 µg/mL). The MIC [4] was 0.41 µM (≈ 1 µg/mL), the MIC [5] was 0.41 µM (≈ 1 µg/mL) and the MIC [6] was 6.57 µM (≈ 16 µg/mL). It also gave an MIC [7] of 105 µM (≈ 256 µg/mL), an MIC [8] of 0.41 µM (≈ 1 µg/mL) and an MIC [9] of 0.103 µM (≈ 0.25 µg/mL). For the same compound, the MIC [10] was 6.57 µM (≈ 16 µg/mL).

For `CC[C@H](C)[C@H](NC(=O)[C@H](CO)NC(=O)[C@H](CCCN=C(N)N)NC(=O)CNC(=O)[C@H](CCC(=O)O)NC(=O)[C@@H](N)CC(C)C)C(=O)N[C@@H](CO)C(=O)N[C@@H](CCCN=C(N)N)C(=O)N[C@H](C(=O)N[C@@H](CC(=O)O)C(=O)N[C@@H](CCC(=O)O)C(=O)N[C@@H](CC(C)C)C(=O)N[C@H](C(=O)N[C@@H](CCC(N)=O)C(=O)N[C@@H](CCC(N)=O)C(=O)N[C@@H](CCCN=C(N)N)C(=O)N[C@@H](CCC(N)=O)C(=O)N[C@@H](CCC(=O)O)C(=O)N[C@@H](CCCCN)C(=O)N[C@@H](CC(=O)O)C(=O)O)[C@@H](C)CC)[C@@H](C)CC` [LEGRSISRIDELIQQRQEKD], the MIC [11] was 2.04 µM (≈ 4.92 µg/mL).

Compound `CC[C@H](C)[C@H](NC(=O)[C@H](Cc1c[nH]c2ccccc12)NC(=O)[C@H](CCCN=C(N)N)NC(=O)[C@H](Cc1c[nH]c2ccccc12)NC(=O)[C@H](Cc1c[nH]c2ccccc12)NC(=O)[C@H](CCCCN)NC(=O)[C@@H](N)CCCN=C(N)N)C(=O)N[C@@H](CCCCN)C(=O)N[C@@H](Cc1c[nH]c2ccccc12)C(N)=O` [RKWWRWIKW] has an MIC [12] of 20 µM (≈ 28.9 µg/mL), an MIC [13] of 1.25 µM (≈ 1.8 µg/mL) and an MIC [14] of 5 µM (≈ 7.22 µg/mL). It also gave an MIC [15] of 2.5 µM (≈ 3.61 µg/mL).

With `CC[C@H](C)[C@H](NC(=O)[C@H](CC(C)C)NC(=O)[C@H](CO)NC(=O)[C@H](Cc1ccccc1)NC(=O)[C@H](CC(C)C)NC(=O)[C@@H](N)CO)C(=O)N[C@@H](CCCCN)C(=O)N[C@@H](C)C(=O)NCC(=O)N[C@@H](C)C(=O)N[C@@H](CCCCN)C(=O)N[C@@H](Cc1ccccc1)C(=O)N[C@@H](CC(C)C)C(=O)NCC(=O)N[C@@H](CCCCN)C(=O)N[C@@H](CC(N)=O)C(=O)N[C@@H](CC(C)C)C(=O)N[C@@H](CC(C)C)C(=O)N[C@@H](CCCCN)C(=O)N[C@@H](CCC(N)=O)C(=O)NCC(=O)N[C@@H](C)C(=O)N[C@@H](CCC(N)=O)C(=O)N[C@@H](Cc1ccc(O)cc1)C(=O)N[C@@H](C)C(=O)N[C@@H](C)C(=O)N[C@H]1CSSC[C@@H](C(=O)O)NC(=O)[C@H](CCC(=O)O)NC(=O)[C@H](CCCCN)NC(=O)[C@H](CO)NC(=O)[C@H](C(C)C)NC(=O)[C@H](CCCCN)NC1=O` [SLFSLIKAGAKFLGKNLLKQGAQYAACKVSKEC] the MIC [16] was 1.78 µM (≈ 6.25 µg/mL), the MIC [17] was 3.56 µM (≈ 12.5 µg/mL) and the MIC [18] was 28.4 µM (≈ 99.9 µg/mL). For the same compound, the MIC [19] was 0.444 µM (≈ 1.56 µg/mL), the MIC [20] was 3.56 µM (≈ 12.5 µg/mL) and the MIC [21] was 1.78 µM (≈ 6.25 µg/mL).

`CC[C@H](C)[C@H](N)C(=O)N[C@@H](CC(N)=O)C(=O)N[C@@H](Cc1c[nH]c2ccccc12)C(=O)N[C@@H](CCCCN)C(=O)N[C@@H](C)C(=O)N[C@@H](CC(C)C)C(=O)N[C@@H](CC(C)C)C(=O)N[C@@H](CC(=O)O)C(=O)N[C@@H](C)C(=O)N[C@@H](C)C(=O)N[C@@H](CCCCN)C(=O)N[C@@H](CCCCN)C(=O)N[C@H](C(=O)N[C@@H](CC(C)C)C(=O)O)C(C)C` [INWKALLDAAKKVL] gave an MIC [22] of at least 158 µM, an MIC [23] of at least 316 µM and an MIC [24] of at least 39.5 µM. The MIC [25] was at least 39.5 µM.

Reference: DBAASP
